Laboratory results from patent US6727275B2, “Pyrrolidinone derivatives” (UCB, S.A./N.V., priority 2001, dated 2004).

Biological target: T1, CCR2 (Homo sapiens, UniProt P41597)
T1 sequence (P41597 1-360 isoform P41597-2): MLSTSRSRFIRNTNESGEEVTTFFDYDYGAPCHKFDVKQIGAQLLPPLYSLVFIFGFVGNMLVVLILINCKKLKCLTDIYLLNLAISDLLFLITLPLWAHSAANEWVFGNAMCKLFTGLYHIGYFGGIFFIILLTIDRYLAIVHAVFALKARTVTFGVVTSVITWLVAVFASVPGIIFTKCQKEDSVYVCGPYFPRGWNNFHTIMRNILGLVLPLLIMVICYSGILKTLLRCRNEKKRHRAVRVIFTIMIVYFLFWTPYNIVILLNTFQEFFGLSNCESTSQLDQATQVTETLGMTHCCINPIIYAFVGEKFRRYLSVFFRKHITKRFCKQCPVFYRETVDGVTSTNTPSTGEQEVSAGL
Assay: Binding assay: inhibition of 125I-MCP-1 binding to THP-1 cells
Design: CCR2 is also expressed in the human monocytic cell line THP-1; endogenous in cells; host or cells: THP-1 (human monocytic cell line), whole cells
Settings: THP-1 cells, 0.1 nM 125I-MCP-1, 1 hr at room temperature; read-out: Inhibition of 125I-MCP-1 binding to THP-1 cells, IC50
Protocol: Antagonism of the CCR2 receptor is determined by a binding assay using the human monocytic cell line THP-1. Cells are suspended in assay buffer (RPMI+1% BSA+25 mM HEPES) at 3×10^6 cells/ml and an aliquot (180 μl) added to a 0.5 ml siliconized Eppendorf tube. […] After incubation for 1 hr at room temperature, the cell suspension is centrifuged through oil and the cell pellets counted to quantitate cell-bound ligand. Nonspecific (NS) binding of radioligand is determined by the addition of 100 nM cold MCP-1. Control binding is determined by the addition of buffer without compound.

Compound	IC50
CC(=O)C1=C(O)C(=O)N(c2cccc(Br)c2)C1C1CCCCC1 (racemic) [Compound 44, 4-acetyl-1-(3-bromophenyl)-5-cyclohexyl-3-hydroxy-1,5-dihydro-2H-pyrrol-2-one]	≤ 5 µM
CCc1cc(N2C(=O)C(O)=C(C(C)=O)C2C2CCCCC2)ccc1Cl (racemic) [Compound 70, 4-acetyl-1-(4-chloro-3-ethylphenyl)-5-cyclohexyl-3-hydroxy-1,5-dihydro-2H-pyrrol-2-one]	≤ 5 µM
CC(=O)C1=C(O)C(=O)N(c2c(F)cc(Br)cc2F)C1C1CCCCC1 (racemic) [Compound 154, 4-acetyl-1-(4-bromo-2,6-difluorophenyl)-5-cyclohexyl-3-hydroxy-1,5-dihydro-2H-pyrrol-2-one]	≤ 5 µM
CCC(C)C(C)C1C(C(C)=O)=C(O)C(=O)N1c1ccc(C)cc1 (stereo not shown) [Compound 19, 4-acetyl-5-(1,2-dimethylbutyl)-3-hydroxy-1-(4-methylphenyl)-1,5-dihydro-2H-pyrrol-2-one]	≤ 5 µM
CC(=O)C1=C(O)C(=O)N(c2ccc(C)cc2)C1CC(C)C (racemic) [Compound 40, 4-acetyl-3-hydroxy-5-isobutyl-1-(4-methylphenyl)-1,5-dihydro-2H-pyrrol-2-one]	≤ 5 µM
CC(=O)C1=C(O)C(=O)N(c2ccc(Br)cc2)C1c1ccc(Br)cc1 (racemic) [Compound 9, 4-acetyl-1,5-bis(4-bromophenyl)-3-hydroxy-1,5-dihydro-2H-pyrrol-2-one]	≤ 5 µM
CC(=O)C1=C(O)C(=O)N(c2ccc(C)cc2)C1CC(C)(C)C (racemic) [Compound 78, 4-acetyl-3-hydroxy-1-(4-methylphenyl)-5-neopentyl-1,5-dihydro-2H-pyrrol-2-one]	≤ 5 µM
CCCC1C(C(C)=O)=C(O)C(=O)N1c1ccc(C)c(Cl)c1 (racemic) [Compound 76, 4-acetyl-1-(3-chloro-4-methylphenyl)-3-hydroxy-5-propyl-1,5-dihydro-2H-pyrrol-2-one]	≤ 5 µM
CCCC1C(C(C)=O)=C(O)C(=O)N1c1ccc(C)c(C)c1 (racemic) [Compound 74, 4-acetyl-1-(3,4-dimethylphenyl)-3-hydroxy-5-propyl-1,5-dihydro-2H-pyrrol-2-one]	≤ 5 µM
CC(=O)C1=C(O)C(=O)N(c2ccc(Cl)cc2F)[C@@H]1C1CCCC1 [Compound 129, (R)-4-acetyl-1-(4-chloro-2-fluorophenyl)-5-cyclopentyl-3-hydroxy-1,5-dihydro-2H-pyrrol-2-one]	≤ 5 µM

Results, then the compound that gave them:

IC50	Compound
≤ 5 µM	CC(=O)C1=C(O)C(=O)N(c2ccccc2)C1C1CCCCC1 (racemic) [Compound 23, 4-acetyl-5-cyclohexyl-3-hydroxy-1-phenyl-1,5-dihydro-2H-pyrrol-2-one]
≤ 5 µM	COc1ccc(N2C(=O)C(O)=C(C(C)=O)C2C2CCCCC2)cc1 (racemic) [Compound 14, 4-acetyl-5-cyclohexyl-3-hydroxy-1-(4-methoxyphenyl)-1,5-dihydro-2H-pyrrol-2-one]
≤ 5 µM	CC(=O)C1=C(O)C(=O)N(c2ccc(F)c(C)c2)C1C1CCCCC1 (racemic) [Compound 64, 4-acetyl-5-cyclohexyl-1-(4-fluoro-3-methylphenyl)-3-hydroxy-1,5-dihydro-2H-pyrrol-2-one]
≤ 5 µM	Cc1ccc(N2C(=O)C(O)=C(C(=O)C(C)(C)C)C2C2CCCCC2)cc1 (racemic) [Compound 41, 5-cyclohexyl-4-(2,2-dimethylpropanoyl)-3-hydroxy-1-(4-methylphenyl)-1,5-dihydro-2H-pyrrol-2-one]
≤ 5 µM	CC(=O)C1=C(O)C(=O)N(c2ccc(F)cc2)[C@@H]1C1CCCCC1 [Compound 139, (R)-4-acetyl-5-cyclohexyl-1-(4-fluorophenyl)-3-hydroxy-1,5-dihydro-2H-pyrrol-2-one]
≤ 5 µM	CC(=O)C1=C(O)C(=O)N(c2ccc(C(C)C)cc2)C1C1CCCCC1 (racemic) [Compound 52, 4-acetyl-5-cyclohexyl-3-hydroxy-1-(4-isopropylphenyl)-1,5-dihydro-2H-pyrrol-2-one]
